Test results: paper PMC10607100, “Anticancer and Antiphytopathogenic Activity of Fluorinated Isatins and Their Water-Soluble Hydrazone Derivatives” (International Journal of Molecular Sciences, 2023)
Like-named read-outs stand apart in the source and are kept apart here.

Assays:
[1] = tested on: Xanthomonas campestris B-610; assay: Agar-well diffusion, bactericidal activity; type: cell-based; settings: Xanthomonas campestris
How it was run: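 Agar-well diffusion on GYCa agar (pH 7.2–7.4) seeded with bacterial suspension; 150 μL compound solution placed in 6-mm wells. Inhibition zone width measured after 36–40 h incubation.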

[2] = tested on: Pectobacterium carotovorum subsp. carotovorum MI; assay: Agar-well diffusion, bactericidal activity; type: cell-based; settings: Pectobacterium carotovorum, 2 mM/L
How it was run: (§1)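 Bacteria spread on agar (BP medium; GYCa for X. campestris; pH 7.2–7.4) with 6-mm wells, each receiving 150 μL compound solution. Cultures grown at 28 °C; growth-inhibition zone width measured after 36–40 h.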

Micrococcus luteus B-109 = assay: Agar-well diffusion, bactericidal activity; type: cell-based; settings: Micrococcus luteus
How it was run: as §1

[3] = tested on: Pectobacterium atrosepticum 1043; assay: Agar-well diffusion, bactericidal activity; type: cell-based; settings: Pectobacterium atrosepticum, 1043, 2 mM/L
How it was run: as §1

[4] = tested on: Pseudomonas fluorescens EL-2.1; assay: Agar-well diffusion, bactericidal activity; type: cell-based; settings: Pseudomonas fluorescens, EL2.1, 2 mM/L
How it was run: as §1

[5] = tested on: five representative phytopathogens; assay: Agar-well diffusion, bactericidal activity over the panel of phytopathogens; type: cell-based
How it was run: as §1

[6] = tested on: Phytophthora cactorum VKM F-985; assay: Mycelial radial growth inhibition; type: cell-based; settings: Phytophthora cactorum; for inhibition of growth at 1 µM: 1 nmol/mL; for inhibition of growth at 1 µM / inhibition of growth at 5 µM / inhibition of growth at 15 µM / inhibition of growth / inhibition of growth at 40 µM: read-out: Inhibition value, I (%); for inhibition of growth at 5 µM: 5 nmol/mL; for inhibition of growth at 15 µM: 15 nmol/mL; for inhibition of growth: 27 nmol/mL; for inhibition of growth at 40 µM: 40 nmol/mL
How it was run: (§2)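 Compounds mixed into molten GPY agar at various concentrations; centre inoculated with a 5-mm mycelial plug from 10-day cultures and incubated at 27 °C. Colony diameter compared with untreated control until control plate was covered (usually 12 days); ≥4 replicates in two experiments.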

[7] = tested on: Fusarium oxysporum IBPPM 543; assay: Mycelial radial growth inhibition; type: cell-based; settings: Fusarium oxysporum; for inhibition of growth at 1 µM: 1 nmol/mL; for inhibition of growth at 1 µM / inhibition of growth at 5 µM / inhibition of growth at 20 µM / inhibition of growth at 40 µM: read-out: Inhibition value, I (%); for inhibition of growth at 5 µM: 5 nmol/mL; for inhibition of growth at 20 µM: 20 nmol/mL; for inhibition of growth at 40 µM: 40 nmol/mL
How it was run: as §2

[8] = Table S3, read-out: Inhibition zone width (mm), not less
[9] = 120 h, age of the fungus 5 days
[10] = 168 h, age of the fungus 7 days
[11] = 216 h, age of the fungus 9 days
[12] = IBPPM543, 72 h, age of the fungus 3 days
[13] = IBPPM543, 120 h, age of the fungus 5 days
[14] = IBPPM543, 168 h, age of the fungus 7 days
[15] = IBPPM543, 216 h, age of the fungus 9 days

Question: Which results are given for O=C(C[n+]1ccccc1)NN=C1C(=O)N(Cc2c(F)cccc2Cl)c2ccc(F)cc21.[Cl-] [Compound 5b, 1-(2-(2-(5-Fluoro-1-(6-chloro-2-fluorobenzyl)-2-oxoindolin-3-ylidene)hydrazinyl)-2-oxoethyl)pyridin-1-ium chloride]?
Answer: melting point: 152 to 153 °C; zone of inhibition at 2000 µM ([1]; B610, 2 mM/L, average of 3 experiments, read-out: width of the inhibition zone (mm), X. campestris): 3 mm; zone of inhibition at 2000 µM ([1]; B610, Table S3, 2 mM/L, read-out: Inhibition zone width (mm), not less): ≥ 3 mm; zone of inhibition at 2000 µM ([2]; average of 3 experiments, read-out: width of the inhibition zone (mm), P. carotovorum subsp. carotovorum): 3 mm; zone of inhibition at 2000 µM [2, 8]: ≥ 3 mm; zone of inhibition at 2000 µM (Micrococcus luteus B-109; B109, 2 mM/L, average of 3 experiments, read-out: width of the inhibition zone (mm), M. luteus): 4 mm; zone of inhibition at 2000 µM (Micrococcus luteus B-109; B109, Table S3, 2 mM/L, read-out: Inhibition zone width (mm), not less): ≥ 4 mm; zone of inhibition at 2000 µM ([3]; average of 3 experiments, read-out: width of the inhibition zone (mm), P. atrosepticum): 4 mm; zone of inhibition at 2000 µM [3, 8]: ≥ 4 mm; zone of inhibition at 2000 µM ([4]; average of 3 experiments, read-out: width of the inhibition zone (mm), Ps. fluorescens): 2.5 mm; zone of inhibition at 2000 µM [4, 8]: ≥ 2 mm; zone of inhibition at 2000 µM ([5]; 36 h, 2 mM solutions, dependent on the test system used, read-out: inhibition zone width (mm), range over the test systems): 2.5 to 4 mm; bactericidal activity ([5]; Table S2): moderate bactericidal activity; inhibition of growth at 1 µM ([6]; 72 h, age of the fungus 3 days): 18%; inhibition of growth at 5 µM ([6]; 72 h, age of the fungus 3 days): 27%; inhibition of growth at 15 µM ([6]; 72 h, age of the fungus 3 days): 30%; inhibition of growth ([6]; 72 h, age of the fungus 3 days): 33%; inhibition of growth at 40 µM ([6]; 72 h, age of the fungus 3 days): 44%; EC50 ([6]; 120 h, day 5, read-out: EC50, µg/mL at Day 5, P. cactorum): 18.2 µg/mL; inhibition of growth at 1 µM [6, 9]: 26%; inhibition of growth at 5 µM [6, 9]: 35%; inhibition of growth at 15 µM [6, 9]: 38%; inhibition of growth [6, 9]: 43%; inhibition of growth at 40 µM [6, 9]: 50%; inhibition of growth at 1 µM [6, 10]: 11%; inhibition of growth at 5 µM [6, 10]: 24%; inhibition of growth at 15 µM [6, 10]: 29%; inhibition of growth [6, 10]: 31%; inhibition of growth at 40 µM [6, 10]: 44%; inhibition of growth at 1 µM [6, 11]: 6%; inhibition of growth at 5 µM [6, 11]: 16%; inhibition of growth at 15 µM [6, 11]: 19%; inhibition of growth [6, 11]: 26%; inhibition of growth at 40 µM [6, 11]: 39%; inhibition of growth at 1 µM [7, 12]: 9%; inhibition of growth at 5 µM [7, 12]: 33%; inhibition of growth at 20 µM [7, 12]: 41%; inhibition of growth at 40 µM [7, 12]: 53%; EC50 ([7]; IBPPM543, 120 h, day 5, read-out: EC50, µg/mL at Day 5, F. oxysporum): 14.8 µg/mL; inhibition of growth at 1 µM [7, 13]: 10%; inhibition of growth at 5 µM [7, 13]: 34%; inhibition of growth at 20 µM [7, 13]: 42%; inhibition of growth at 40 µM [7, 13]: 56%; inhibition of growth at 1 µM [7, 14]: 9%; inhibition of growth at 5 µM [7, 14]: 25%; inhibition of growth at 20 µM [7, 14]: 34%; inhibition of growth at 40 µM [7, 14]: 40%; inhibition of growth at 1 µM [7, 15]: 0%; inhibition of growth at 5 µM [7, 15]: 19%; inhibition of growth at 20 µM [7, 15]: 28%; inhibition of growth at 40 µM [7, 15]: 31%
